In brackets after ≈: the same amount, converted by molar mass. Where two headings read alike, the source gives them in different places.
Assays:
Experiment in all cases: Antibacterial activity (MIC), standard method of the Japanese Society of Chemotherapy
Format in all cases: cell-based
S. aureus 870307 = details: Staphylococcus aureus
Experimental: (§1) Antibacterial activity of the compounds of the present invention was measured in accordance with the standard method specified by the Japanese Society of Chemotherapy.

P. mirabilis 08103 = details: Proteus mirabilis
Experimental: as §1

K. pneumoniae TYPE 1 = details: Klebsiella pneumoniae, TYPE1
Experimental: as §1

S. epidermidis 56500 = details: Staphylococcus epidermidis
Experimental: as §1

[1] = test system: M(B). Caterrhalis ATCC25238
Experimental: as §1

S. pneumoniae 104835 = details: Streptococcus pneumoniae
Experimental: as §1

E. cloacae 03400 = details: Enterobacter cloacae
Experimental: as §1

E. faecalis 19433 = details: Enterococcus faecalis
Experimental: as §1

S. pneumoniae J24 = details: Streptococcus pneumoniae
Experimental: as §1

H. influenzae ATCC49247 = details: Haemophilus influenzae
Experimental: as §1

P. aeruginosa PAO1 = details: Pseudomonas aeruginosa
Experimental: as §1

S. marcescens 10100 = details: Serratia marcescens
Experimental: as §1

S. aureus FDA 209-P = details: Staphylococcus aureus, FDA209
Experimental: as §1

E. coli NIHJ = details: Escherichia coli
Experimental: as §1

[2] = test system: S. pyogenes JCM5674(ATCC12344); details: Streptococcus pyogenes
Experimental: as §1

[3] = M(B). Caterrhalis [sic] ATCC49247 (Table 2), read-out: MIC, M(B). Caterrhalis ATCC49247
[4] = ATCC 25238 / ATCC 49247, H. influenzae ATCC25238 as printed (second half of Table 2), read-out: MIC, H. influenzae ATCC25238
[5] = M(B). Caterrhalis ATCC25238 (first half of Table 2), read-out: MIC, M(B). Caterrhalis ATCC25238
[6] = H. influenzae ATCC49247 (first half of Table 2), read-out: MIC, H. influenzae ATCC49247

SMILES | MIC (S. aureus 870307) [µg/mL] | MIC (P. mirabilis 08103) [µg/mL] | MIC (K. pneumoniae TYPE 1) [µg/mL] | MIC (S. epidermidis 56500) [µg/mL] | MIC [1, 3] [µg/mL] | MIC (S. pneumoniae 104835) [µg/mL] | MIC (E. cloacae 03400) [µg/mL] | MIC (E. faecalis 19433) [µg/mL] | MIC (S. pneumoniae J24) [µg/mL] | MIC (H. influenzae ATCC49247; [4]) [µg/mL] | MIC (P. aeruginosa PAO1) [µg/mL] | MIC (S. marcescens 10100) [µg/mL] | MIC (S. aureus FDA 209-P) [µg/mL] | MIC (E. coli NIHJ) [µg/mL] | MIC [2] [µg/mL] | MIC [1, 5] [µg/mL] | MIC (H. influenzae ATCC49247; [6]) [µg/mL]
COc1c(N2C[C@@H]3COCC[C@@]3(N)C2)c(F)cc2c(=O)c(C(=O)O)cn([C@@H]3C[C@@H]3F)c12 [Example 37, 7-[(1S,6S)-1-Amino-4-oxa-8-azabicyclo[4.3.0]nonan-8-yl]-6-fluoro-1-[(1R,2S)-2-fluorocyclopropyl]-1,4-dihydro-8-methoxy-4-oxoquinoline-3-carboxylic acid] | 0.05 (≈ 0.115 µM) | 0.05 (≈ 0.115 µM) | 0.1 (≈ 0.23 µM) | 0.012 (≈ 0.0276 µM) | 0.025 (≈ 0.0574 µM) | 0.39 (≈ 0.896 µM) | 0.025 (≈ 0.0574 µM) | 0.1 (≈ 0.23 µM) | 0.05 (≈ 0.115 µM) | ≤ 0.003 | 1.56 (≈ 3.58 µM) | 0.2 (≈ 0.459 µM) | 0.006 (≈ 0.0138 µM) | 0.006 (≈ 0.0138 µM) | 0.05 (≈ 0.115 µM) | – | –
COc1c(N2CC3=CCCC3(N)C2)c(F)cc2c(=O)c(C(=O)O)cn([C@@H]3C[C@@H]3F)c12 (single isomer, unassigned) [Example 25] | 0.39 (≈ 0.934 µM) | 0.025 (≈ 0.0599 µM) | 0.05 (≈ 0.12 µM) | 0.1 (≈ 0.24 µM) | – | 0.39 (≈ 0.934 µM) | 0.012 (≈ 0.0287 µM) | 0.2 (≈ 0.479 µM) | 0.05 (≈ 0.12 µM) | – | 0.39 (≈ 0.934 µM) | 0.1 (≈ 0.24 µM) | 0.025 (≈ 0.0599 µM) | 0.012 (≈ 0.0287 µM) | 0.05 (≈ 0.12 µM) | 0.025 (≈ 0.0599 µM) | 0.006 (≈ 0.0144 µM)
C[C@H]1COc2c(N3CCN(C)CC3)c(F)cc3c(=O)c(C(=O)O)cn1c23 [LVFX, levofloxacin, reference compound] | 6.25 (≈ 17.3 µM) | 0.025 (≈ 0.0692 µM) | 0.05 (≈ 0.138 µM) | 0.39 (≈ 1.08 µM) | 0.025 (≈ 0.0692 µM) | > 6.25 | 0.012 (≈ 0.0332 µM) | 0.78 (≈ 2.16 µM) | 0.78 (≈ 2.16 µM) | 0.012 (≈ 0.0332 µM) | 0.39 (≈ 1.08 µM) | 0.05 (≈ 0.138 µM) | 0.1 (≈ 0.277 µM) | 0.012 (≈ 0.0332 µM) | 0.39 (≈ 1.08 µM) | – | –
C[C@H]1COc2c(N3C[C@@H]4CCCC[C@@]4(N)C3)c(F)cc3c(=O)c(C(=O)O)cn1c23 [Example 34, 10-[(1S,6S)-1-Amino-8-azabicyclo[4.3.0]nonan-8-yl]-9-fluoro-2,3-dihydro-3-(S)-methyl-7-oxo-7H-pyrido[1,2,3-de][1,4]benzoxazine-6-carboxylic acid] | 0.39 (≈ 0.972 µM) | 0.012 (≈ 0.0299 µM) | 0.025 (≈ 0.0623 µM) | 0.05 (≈ 0.125 µM) | 0.012 (≈ 0.0299 µM) | 0.39 (≈ 0.972 µM) | 0.006 (≈ 0.0149 µM) | 0.1 (≈ 0.249 µM) | 0.1 (≈ 0.249 µM) | 0.006 (≈ 0.0149 µM) | 0.2 (≈ 0.498 µM) | 0.05 (≈ 0.125 µM) | 0.025 (≈ 0.0623 µM) | 0.006 (≈ 0.0149 µM) | 0.05 (≈ 0.125 µM) | – | –
COc1c(N2C[C@H]3[C@@H](C)C[C@@]3(N)C2)c(F)cc2c(=O)c(C(=O)O)cn([C@@H]3C[C@@H]3F)c12 [Example 2, 7-{(1S,5R,6S)-1-Amino-6-methyl-3-azabicyclo[3.2.0]hept-3-yl}-6-fluoro-1-[(1R,2S)-2-fluorocyclopropyl]-1,4-dihydro-8-methoxy-4-oxoquinoline-3-carboxylic acid] | 0.1 (≈ 0.238 µM) | 0.012 (≈ 0.0286 µM) | 0.1 (≈ 0.238 µM) | 0.012 (≈ 0.0286 µM) | – | 0.1 (≈ 0.238 µM) | 0.025 (≈ 0.0596 µM) | 0.05 (≈ 0.119 µM) | 0.012 (≈ 0.0286 µM) | – | 0.78 (≈ 1.86 µM) | 0.2 (≈ 0.477 µM) | ≤ 0.003 | 0.025 (≈ 0.0596 µM) | 0.025 (≈ 0.0596 µM) | 0.025 (≈ 0.0596 µM) | 0.006 (≈ 0.0143 µM)
COc1c(N2CC3(N)CCC4CC43C2)c(F)cc2c(=O)c(C(=O)O)cn([C@@H]3C[C@@H]3F)c12 (single isomer, unassigned) [Example 27] | 0.2 (≈ 0.464 µM) | 0.05 (≈ 0.116 µM) | 0.1 (≈ 0.232 µM) | 0.05 (≈ 0.116 µM) | – | 0.2 (≈ 0.464 µM) | 0.025 (≈ 0.0579 µM) | 0.1 (≈ 0.232 µM) | 0.025 (≈ 0.0579 µM) | – | 0.78 (≈ 1.81 µM) | 0.2 (≈ 0.464 µM) | 0.012 (≈ 0.0278 µM) | 0.012 (≈ 0.0278 µM) | 0.05 (≈ 0.116 µM) | 0.05 (≈ 0.116 µM) | 0.006 (≈ 0.0139 µM)
Cc1c(N2C[C@]3(N)CCC[C@]3(F)C2)c(F)cc2c(=O)c(C(=O)O)cn([C@@H]3C[C@@H]3F)c12 [Example 17, 7-[(1R,5S)-1-Amino-5-fluoro-3-azabicyclo[3.3.0]octan-3-yl]-6-fluoro-1-[(1R,2S)-2-fluorocyclopropane]-1,4-dihydro-8-methyl-4-oxoquinoline-3-carboxylic acid] | 0.2 (≈ 0.475 µM) | 0.006 (≈ 0.0142 µM) | 0.012 (≈ 0.0285 µM) | 0.025 (≈ 0.0593 µM) | – | 0.1 (≈ 0.237 µM) | 0.006 (≈ 0.0142 µM) | 0.05 (≈ 0.119 µM) | 0.025 (≈ 0.0593 µM) | – | 0.2 (≈ 0.475 µM) | 0.05 (≈ 0.119 µM) | 0.006 (≈ 0.0142 µM) | ≤ 0.003 | 0.025 (≈ 0.0593 µM) | 0.006 (≈ 0.0142 µM) | ≤ 0.003
O=C(O)c1cn(C2CC2)c2cc(N3CCNCC3)c(F)cc2c1=O [CPFX, ciprofloxacin, reference compound] | > 6.25 | 0.012 (≈ 0.0362 µM) | – | 0.2 (≈ 0.604 µM) | – | > 6.25 | – | 0.78 (≈ 2.35 µM) | 0.78 (≈ 2.35 µM) | – | 0.05 (≈ 0.151 µM) | – | 0.1 (≈ 0.302 µM) | ≤ 0.003 | 0.39 (≈ 1.18 µM) | – | –
COc1c(N2C[C@@H]3CCCN[C@@H]3C2)c(F)cc2c(=O)c(C(=O)O)cn(C3CC3)c12 [MXFX, moxifloxacin, reference compound] | 0.78 (≈ 1.94 µM) | 0.025 (≈ 0.0623 µM) | 0.1 (≈ 0.249 µM) | 0.1 (≈ 0.249 µM) | – | 3.13 (≈ 7.8 µM) | – | 0.2 (≈ 0.498 µM) | 0.1 (≈ 0.249 µM) | – | 0.78 (≈ 1.94 µM) | 0.2 (≈ 0.498 µM) | 0.05 (≈ 0.125 µM) | – | 0.2 (≈ 0.498 µM) | – | –
COc1c(N2C[C@H]3[C@H](C)C[C@@]3(N)C2)c(F)cc2c(=O)c(C(=O)O)cn([C@@H]3C[C@@H]3F)c12 [Example 5, 7-{(1S,5R,6R)-1-Amino-6-methyl-3-azabicyclo[3.2.0]hept-3-yl}-6-fluoro-1-[(1R,2S)-2-fluorocyclopropyl]-1,4-dihydro-8-methoxy-4-oxoquinoline-3-carboxylic acid] | 0.2 (≈ 0.477 µM) | 0.025 (≈ 0.0596 µM) | 0.1 (≈ 0.238 µM) | 0.025 (≈ 0.0596 µM) | – | 0.2 (≈ 0.477 µM) | 0.025 (≈ 0.0596 µM) | 0.1 (≈ 0.238 µM) | 0.025 (≈ 0.0596 µM) | – | 0.78 (≈ 1.86 µM) | 0.2 (≈ 0.477 µM) | 0.006 (≈ 0.0143 µM) | 0.025 (≈ 0.0596 µM) | 0.05 (≈ 0.119 µM) | 0.05 (≈ 0.119 µM) | 0.012 (≈ 0.0286 µM)
COc1c(N2C[C@@H]3CCCC[C@@]3(N)C2)c(F)cc2c(=O)c(C(=O)O)cn([C@@H]3C[C@@H]3F)c12 [Example 31, 7-[(1S,6S)-1-Amino-8-azabicyclo[4.3.0]nonan-8-yl]-6-fluoro-1-[(1R,2S)-2-fluorocyclopropyl]-8-methoxy-1,4-dihydro-4-oxoquinoline-3-carboxylic acid] | 0.1 (≈ 0.231 µM) | 0.012 (≈ 0.0277 µM) | 0.05 (≈ 0.115 µM) | 0.05 (≈ 0.115 µM) | 0.025 (≈ 0.0577 µM) | 0.2 (≈ 0.461 µM) | 0.012 (≈ 0.0277 µM) | 0.1 (≈ 0.231 µM) | 0.025 (≈ 0.0577 µM) | 0.012 (≈ 0.0277 µM) | 0.39 (≈ 0.9 µM) | 0.1 (≈ 0.231 µM) | 0.012 (≈ 0.0277 µM) | 0.006 (≈ 0.0138 µM) | 0.025 (≈ 0.0577 µM) | – | –
COc1c(N2C[C@@H]3CC=CC[C@@]3(N)C2)c(F)cc2c(=O)c(C(=O)O)cn([C@@H]3C[C@@H]3F)c12 [Example 35, 7-[(1S,6S)-1-Amino-8-azabicyclo[4.3.0]non-3-en-8-yl]-6-fluoro-1-[(1R,2S)-2-fluorocyclopropyl]-1,4-dihydro-8-methoxy-4-oxoquinoline-3-carboxylic acid] | 0.2 (≈ 0.464 µM) | 0.025 (≈ 0.0579 µM) | 0.05 (≈ 0.116 µM) | 0.05 (≈ 0.116 µM) | 0.025 (≈ 0.0579 µM) | 0.39 (≈ 0.904 µM) | 0.012 (≈ 0.0278 µM) | 0.2 (≈ 0.464 µM) | 0.05 (≈ 0.116 µM) | 0.012 (≈ 0.0278 µM) | 0.39 (≈ 0.904 µM) | 0.1 (≈ 0.232 µM) | 0.025 (≈ 0.0579 µM) | 0.006 (≈ 0.0139 µM) | 0.05 (≈ 0.116 µM) | – | –
COc1c(N2C[C@@H]3CCOC[C@@]3(N)C2)c(F)cc2c(=O)c(C(=O)O)cn([C@@H]3C[C@@H]3F)c12 [Example 43, 7-[(1S,6S)-1-Amino-8-aza-3-oxabicyclo[4,3,0]nonan-8-yl]-6-fluoro-1-[(1R,2S)-2-fluorocyclopropyl]-1,4-dihydro-8-methoxy-4-oxoquinoline-3-carboxylic acid] | 0.2 (≈ 0.459 µM) | 0.025 (≈ 0.0574 µM) | 0.05 (≈ 0.115 µM) | 0.05 (≈ 0.115 µM) | 0.025 (≈ 0.0574 µM) | 0.78 (≈ 1.79 µM) | 0.012 (≈ 0.0276 µM) | 0.2 (≈ 0.459 µM) | 0.1 (≈ 0.23 µM) | 0.006 (≈ 0.0138 µM) | 0.78 (≈ 1.79 µM) | 0.2 (≈ 0.459 µM) | 0.012 (≈ 0.0276 µM) | 0.006 (≈ 0.0138 µM) | 0.05 (≈ 0.115 µM) | – | –

Source: US8618094B2, “Fused substituted aminopyrrolidine derivative” (Daiichi Sankyo Company, Limited, priority 2007, dated 2013)
